This is an account of results in publication PMC9636034 (Current Research in Food Science, 2022).

In this experiment the target is α-glucosidase from yeast (Saccharomyces cerevisiae, UniProt P53341). The experiment is described as follows: Inhibition assay against α-glucosidase from yeast. The format is biochemical.
α-glucosidase from yeast, sequence (P53341 whole entry): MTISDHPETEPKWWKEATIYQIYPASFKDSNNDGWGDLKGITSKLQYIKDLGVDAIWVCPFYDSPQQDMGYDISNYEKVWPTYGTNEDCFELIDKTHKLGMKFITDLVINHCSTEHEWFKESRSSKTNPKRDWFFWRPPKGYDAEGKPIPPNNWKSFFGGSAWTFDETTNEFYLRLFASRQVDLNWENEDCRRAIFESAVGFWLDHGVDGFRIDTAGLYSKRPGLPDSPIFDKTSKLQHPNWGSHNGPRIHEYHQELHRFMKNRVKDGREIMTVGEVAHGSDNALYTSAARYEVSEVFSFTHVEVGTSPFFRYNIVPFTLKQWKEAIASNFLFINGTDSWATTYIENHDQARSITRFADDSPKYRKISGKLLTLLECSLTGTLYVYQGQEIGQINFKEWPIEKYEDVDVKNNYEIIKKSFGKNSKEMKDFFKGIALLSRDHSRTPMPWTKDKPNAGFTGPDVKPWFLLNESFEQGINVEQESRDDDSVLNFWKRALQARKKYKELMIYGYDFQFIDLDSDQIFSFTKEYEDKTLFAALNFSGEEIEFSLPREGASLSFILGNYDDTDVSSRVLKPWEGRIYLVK

As for `CC1=C(C)C(C)(O)OC1=O` (centres unmarked) [Compound 3, 2-methyl-2-hydroxy-3,4-dimethyl-5-oxo-2,5-dihydrofuran], the IC50 (as a rule, the concentration at which inhibition is half-maximal) is over 250 µM.

Compound `CC(=O)[C@@H]1COC(=O)[C@H]1C` [Compound 2, (3S, 4S)-4-acetyl-3-methyldihydrofuran-2 (3H)-one] had an IC50 of 193 ± 13.1 µM.
